Measured values reported in patent publication US10703698B2, “Compounds which activate estrogen receptors and compositions and methods of using the same” (The Board of Trustees of the University of Illinois, priority 2016, dated 2020).

What was measured:
eNOS = eNOS activation in primary endothelial cells (14C-L-arginine to 14C-L-citrulline); type: cell-based, bovine; settings: 15 min; 10 nM ligand (FIG. 9E)
MCF-7 cells = test: RNA-Seq of MCF-7 cells treated with OA with and without PaPE-1; type: cell-based, human
Description: FIG. 38. Identification of genes induced by OA and PaPE-1's effect on the gene regulation. (A) RNA-Seq analysis of gene expression changes induced by OA and OA+PaPE1. Heat map of the genes with significant changed expression. MCF-7 cells were treated with Veh or 100 nM OA with and without 1 μM PaPE-1 for 24 h. RNA was isolated and RNA-Seq was performed using 2 samples from each treatment group. Differentially regulated genes were determined with p<0.05 and expression fold change >2. (B) Clusters from A. regulated by OA and reversed by PaPE-1. The average gene expression level of the cluster1 (C1) and 2 (C2) identified as PaPE-1 regulated high-fat genes. In C1, there are 425 genes whose expression were found stimulated in OA but not in the OA+PaPE-1 treatment. In C2, there are 646 genes whose expression were found suppressed in the OA but restored by OA+PaPE-1 treatment. (C) Venn diagram analysis. […] (D) Examples of OA-regulated genes. Some of the top functions of the involved genes are presented.

## Cc1cc(-c2ccc3c(c2)CCC3O)cc(C)c1O (racemic) [Compound 2, 5-(4-hydroxy-3,5-dimethylphenyl)-2,3-dihydro-1H-inden-1-ol]
eNOS
  eNOS / NOS activity: comparable response
MCF-7 cells
  cluster C1: genes stimulated in OA but not in OA+PaPE-1: 425 genes
  cluster C2: genes suppressed in OA but restored by OA+PaPE-1: 646 genes
MCF-7 cells; 1 μM PaPE-1
  OA-downregulated genes whose expression was restored by PaPE-1: about 60%
  OA-upregulated genes whose activation was blocked by PaPE-1: 80%
